Laboratory results taken from patent US20250099423A1, “PIPERAZINE-BASED AGONISTS OF LFA-1 AND VLA-4” (Texas Heart Institute, priority 2021, published 2025).

Key:
[1] = target: T1, α4β1/VCAM-1 (Homo sapiens, UniProt P05556+P13612); assay: Static cell adhesion assay, Jurkat cells on VCAM-1 (α4β1/VCAM-1); type: cell-based; conditions: ratio compound activity/control THI0019 (average 33 μM) run on the same plate
T1 construct: The Jurkat (VCAM-1 assays) and HSB (ICAM-1 assays) cell lines were obtained from American Type Culture Collection; endogenous in cells; host or cells: Jurkat cells (ATCC)
Protocol: (§1) For in vitro cell adhesion assays, compounds were dissolved in DMSO to make a series of stock solutions such that a 1:100 dilution in assay buffer would yield the desired final working concentrations in 1% DMSO (vehicle). Human VCAM-1 and ICAM-1 were purchased from R&D Systems (Minneapolis, MN). The Jurkat (VCAM-1 assays) and HSB (ICAM-1 assays) cell lines were obtained from American Type Culture Collection (Manassas, VA) and were maintained in recommended culture media.
(§2) Assays were performed as previously described in 1. Vanderslice, P., Woodside, D. G., Caivano, A. R., Decker, E. R., Munsch, C. L., Sherwood, S. J., Lejeune, W. S., Miyamoto, Y. J., McIntyre, B. W., Tilton, R. G., and Dixon, R. A. (2010) Potent in vivo suppression of inflammation by selectively targeting the high affinity conformation of integrin alpha4beta1. Biochem Biophys Res Commun 400, 619-624; and 2. Vanderslice, P., Biediger, R. J., Woodside, D. G., Brown, W. S., Khounlo, S., Warier, N. D., Gundlach, C. W. t., Caivano, A. R., Bornmann, W. G., Maxwell, D. S., McIntyre, B. W., Willerson, J. T., and Dixon, R. A. (2013) Small molecule agonist of very late antigen-4 (VLA-4) integrin induces progenitor cell adhesion. J Biol Chem 288, 19414-19428. VCAM-1 or ICAM-1 ligand in 50 μL of 50 mM Tris-HCl (pH 7.4), 150 mM NaCl, (TBS) was added to wells of a 96-well plate and allowed to coat overnight at 4° C. To maximize the window to evaluate agonist activity, a sub-optimal coating concentration of ligand was used, typically between 0.5 and 5 μg/mL in 50 μL TBS for VCAM-1 and ICAM-1 respectively. This ligand concentration corresponded approximately to that which would yield≤ 5% adhesion as determined by dose-response curves. Briefly, 2×10^6 cells were labeled for 30 minutes with calcein-AM (Molecular Probes), washed, resuspended in binding buffer, and added to triplicate wells of ligand-coated plates (2×10^5 cells/well) that had been blocked with 2% BSA. After a 30-minute incubation at 37° C., the plates were washed 3 times with binding buffer, the adherent cells were lysed, and fluorescence was measured on a Tecan Safire^2 plate reader. The binding buffer was PBS with 1 mM MgCl2, 50% FBS for α4β1/VCAM-1 assays and PBS with 2 mM MgCl2, 5 mM EGTA, 50% FBS for αLβ2/ICAM-1 assays. EC50 is defined as the concentration of compound required to achieve 50% of the maximal response.

[2] = target: T2, LFA-1 (Homo sapiens, UniProt P05107+P20701); assay: Static cell adhesion assay, HSB cells on ICAM-1 (αLβ2/ICAM-1; LFA-1); type: cell-based; conditions: Dose 3 μM, compound and THI0349 at the same concentration; ratio >1 = more potent agonist
T2 construct: The Jurkat (VCAM-1 assays) and HSB (ICAM-1 assays) cell lines were obtained from American Type Culture Collection; endogenous in cells; host or cells: HSB cells (ATCC)
Protocol: as §1, §2
THI0019 and THI0349 (average 11 μM) reported values here were obtained under the assay conditions reported herein and ran higher in the presence of serum than those values under different assay conditions. […] Relative to THI0019 (average 33 μM) as a control against CS1, the ratio of (compound activity/control) is as follows: Group I< or =1. Group II at least a ratio of >1 up to 2× that of THI0019 ran on the same plate; Group III is >2× of THI0019 but less than 5×; and Group IV>5× of THI0019 (with an upper limit of approximately 200 mM). In relation to LAD (Leukocyte Adhesion Deficiency), LFA-1 ratios are determined by dividing the relative fluorescence units (RFU) of each compound over that of the reference standard of THI0349, (RFU Compound/RFU of THI0349). Against LFA-1, the signal for THI0349 at 3 μM was compared to the claimed compounds at the same concentration.

T2 sequence (P20701 26-1170): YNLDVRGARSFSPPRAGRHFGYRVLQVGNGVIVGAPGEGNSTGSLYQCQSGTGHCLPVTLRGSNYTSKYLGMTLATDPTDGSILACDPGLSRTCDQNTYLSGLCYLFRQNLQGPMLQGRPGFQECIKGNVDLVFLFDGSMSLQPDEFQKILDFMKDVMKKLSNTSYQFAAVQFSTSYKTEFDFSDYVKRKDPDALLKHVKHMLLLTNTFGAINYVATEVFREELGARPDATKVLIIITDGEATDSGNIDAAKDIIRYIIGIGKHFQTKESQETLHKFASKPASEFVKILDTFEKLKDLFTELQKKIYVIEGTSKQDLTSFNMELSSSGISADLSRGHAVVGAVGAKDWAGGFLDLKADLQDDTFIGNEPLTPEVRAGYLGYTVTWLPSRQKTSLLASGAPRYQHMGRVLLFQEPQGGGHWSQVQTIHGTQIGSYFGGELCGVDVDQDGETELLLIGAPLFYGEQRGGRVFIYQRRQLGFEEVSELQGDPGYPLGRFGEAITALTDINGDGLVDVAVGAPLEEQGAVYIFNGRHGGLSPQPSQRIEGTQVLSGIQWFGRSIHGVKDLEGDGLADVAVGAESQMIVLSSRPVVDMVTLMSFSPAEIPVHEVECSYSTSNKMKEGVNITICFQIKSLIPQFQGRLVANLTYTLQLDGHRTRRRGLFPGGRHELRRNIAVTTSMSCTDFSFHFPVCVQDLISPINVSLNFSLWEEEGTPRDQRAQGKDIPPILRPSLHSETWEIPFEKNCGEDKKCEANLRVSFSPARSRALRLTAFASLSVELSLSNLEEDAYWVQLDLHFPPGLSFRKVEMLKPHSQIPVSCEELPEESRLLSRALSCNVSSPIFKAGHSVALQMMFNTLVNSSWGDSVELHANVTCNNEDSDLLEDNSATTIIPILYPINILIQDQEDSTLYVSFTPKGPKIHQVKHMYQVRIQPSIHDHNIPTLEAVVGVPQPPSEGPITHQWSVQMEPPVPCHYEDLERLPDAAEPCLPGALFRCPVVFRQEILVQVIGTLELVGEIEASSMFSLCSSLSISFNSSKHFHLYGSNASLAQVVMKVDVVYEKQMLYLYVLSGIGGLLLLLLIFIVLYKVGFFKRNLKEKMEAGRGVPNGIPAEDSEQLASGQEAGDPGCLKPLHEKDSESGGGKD
T2 sequence (P05107 23-769): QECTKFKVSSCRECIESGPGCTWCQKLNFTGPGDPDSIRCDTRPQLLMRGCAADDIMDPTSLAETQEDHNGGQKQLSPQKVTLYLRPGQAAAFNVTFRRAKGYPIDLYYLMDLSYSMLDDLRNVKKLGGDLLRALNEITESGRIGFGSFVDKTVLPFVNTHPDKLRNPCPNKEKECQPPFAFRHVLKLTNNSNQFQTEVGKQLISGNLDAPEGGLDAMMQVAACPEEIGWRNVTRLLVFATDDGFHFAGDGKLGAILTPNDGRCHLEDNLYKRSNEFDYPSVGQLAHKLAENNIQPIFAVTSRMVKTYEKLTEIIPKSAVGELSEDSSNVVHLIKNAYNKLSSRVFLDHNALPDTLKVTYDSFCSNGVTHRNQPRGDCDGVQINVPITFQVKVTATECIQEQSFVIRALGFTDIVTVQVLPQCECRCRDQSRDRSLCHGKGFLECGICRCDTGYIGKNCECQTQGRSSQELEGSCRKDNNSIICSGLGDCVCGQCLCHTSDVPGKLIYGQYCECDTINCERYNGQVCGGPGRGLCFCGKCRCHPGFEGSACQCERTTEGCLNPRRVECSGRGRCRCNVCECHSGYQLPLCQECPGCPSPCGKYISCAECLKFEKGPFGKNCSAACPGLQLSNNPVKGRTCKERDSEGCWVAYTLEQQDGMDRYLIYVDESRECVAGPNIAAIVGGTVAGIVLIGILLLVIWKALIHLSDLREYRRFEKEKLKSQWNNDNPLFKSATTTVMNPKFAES
T1 sequence (P13612 34-1032): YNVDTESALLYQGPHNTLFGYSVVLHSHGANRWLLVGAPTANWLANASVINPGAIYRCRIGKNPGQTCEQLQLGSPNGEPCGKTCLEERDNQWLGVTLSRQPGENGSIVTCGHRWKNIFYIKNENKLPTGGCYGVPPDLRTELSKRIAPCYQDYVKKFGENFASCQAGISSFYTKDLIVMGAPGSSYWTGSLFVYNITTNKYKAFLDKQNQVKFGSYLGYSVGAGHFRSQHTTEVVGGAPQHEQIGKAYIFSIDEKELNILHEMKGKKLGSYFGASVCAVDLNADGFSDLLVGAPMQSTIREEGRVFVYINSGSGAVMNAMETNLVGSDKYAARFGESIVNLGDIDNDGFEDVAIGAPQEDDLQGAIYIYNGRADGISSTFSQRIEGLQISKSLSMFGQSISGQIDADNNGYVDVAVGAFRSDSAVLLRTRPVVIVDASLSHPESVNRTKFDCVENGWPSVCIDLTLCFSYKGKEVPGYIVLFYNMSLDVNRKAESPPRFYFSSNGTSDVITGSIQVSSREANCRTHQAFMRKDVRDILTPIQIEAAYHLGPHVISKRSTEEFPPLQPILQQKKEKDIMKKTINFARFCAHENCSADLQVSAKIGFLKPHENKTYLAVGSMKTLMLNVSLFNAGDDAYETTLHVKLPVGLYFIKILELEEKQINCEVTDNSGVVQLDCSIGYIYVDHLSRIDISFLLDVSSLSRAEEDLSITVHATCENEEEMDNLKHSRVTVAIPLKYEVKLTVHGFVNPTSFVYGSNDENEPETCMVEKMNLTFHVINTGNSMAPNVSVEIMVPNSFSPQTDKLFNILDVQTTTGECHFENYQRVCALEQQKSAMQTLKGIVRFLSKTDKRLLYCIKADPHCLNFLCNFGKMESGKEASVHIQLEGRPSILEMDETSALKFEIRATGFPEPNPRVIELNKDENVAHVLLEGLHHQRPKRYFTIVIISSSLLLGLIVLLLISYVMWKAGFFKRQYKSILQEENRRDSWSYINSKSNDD
T1 sequence (P05556 21-798): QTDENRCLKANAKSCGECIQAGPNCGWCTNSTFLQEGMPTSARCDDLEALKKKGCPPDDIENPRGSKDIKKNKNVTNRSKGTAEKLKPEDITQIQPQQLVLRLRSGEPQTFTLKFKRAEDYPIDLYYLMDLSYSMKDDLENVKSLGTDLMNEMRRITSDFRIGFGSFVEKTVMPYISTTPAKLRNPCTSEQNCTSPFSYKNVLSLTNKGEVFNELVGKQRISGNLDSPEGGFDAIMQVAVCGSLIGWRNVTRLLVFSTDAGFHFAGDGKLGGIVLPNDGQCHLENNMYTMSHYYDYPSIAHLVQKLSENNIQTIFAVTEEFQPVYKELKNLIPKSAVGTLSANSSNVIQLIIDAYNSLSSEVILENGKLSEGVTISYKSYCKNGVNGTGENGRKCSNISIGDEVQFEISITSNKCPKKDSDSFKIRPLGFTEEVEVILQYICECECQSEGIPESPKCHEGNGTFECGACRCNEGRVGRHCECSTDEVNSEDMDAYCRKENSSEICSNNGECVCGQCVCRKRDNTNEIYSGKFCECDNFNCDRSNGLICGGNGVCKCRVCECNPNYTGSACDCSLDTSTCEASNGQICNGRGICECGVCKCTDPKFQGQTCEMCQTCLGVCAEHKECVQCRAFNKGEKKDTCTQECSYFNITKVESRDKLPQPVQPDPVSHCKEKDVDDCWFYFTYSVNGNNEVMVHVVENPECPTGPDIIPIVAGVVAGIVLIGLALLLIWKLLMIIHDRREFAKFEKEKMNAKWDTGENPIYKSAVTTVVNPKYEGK

For `COc1ccc(CN(Cc2ccc(OC)cc2)C(=O)CCCCN2CCN(C(=O)OCc3ccccc3)CC2)cc1` [benzyl 4-(5-(bis(4-methoxybenzyl)amino)-5-oxopentyl)piperazine-1-carboxylate], the “Average Ratio Compound to THI0019 (Activity against CS1)” value (shortened to “Average Ratio Compound to THI0019”) [1] was “Group II (Group II at least a ratio of >1 up to 2× that of THI0019 ran on the same plate)” and the “LAD Raw Fluorescence Units against LFA-1; Ratio of raw counts Compound/THI0349” value [2] was 4.3 fold increased response.

`COc1ccc(CN(Cc2ccc(N(C)C)cc2)C(=O)CN2CCN(C(=O)c3cccc(OC)c3)CC2=O)cc1` [N-(4-(dimethylamino)benzyl)-2-(4-(3-methoxybenzoyl)-2-oxopiperazin-1-yl)-N-(4-methoxybenzyl)acetamide] was tested, and the “Average Ratio Compound to THI0019” value [1] was “Group IV (Group IV>5× of THI0019 (with an upper limit of approximately 200 mM))” and the “LAD Raw Fluorescence Units against LFA-1; Ratio of raw counts Compound/THI0349” value [2] was 1.2 fold increased response.

In the case of `COc1ccc(CCOC(=O)N2CCN(CC(=O)N(Cc3ccc(OC)cc3)Cc3ccc(OC)cc3)CC2)cc1` [4-methoxyphenethyl 4-(2-(bis(4-methoxybenzyl)amino)-2-oxoethyl)piperazine-1-carboxylate], the “Average Ratio Compound to THI0019” value [1] is reported as “Group II (Group II at least a ratio of >1 up to 2× that of THI0019 ran on the same plate)” and the “LAD Raw Fluorescence Units against LFA-1; Ratio of raw counts Compound/THI0349” value [2] is reported as 4.6 fold increased response.

With `COc1ccc(CN(Cc2ccc(OC)cc2)C(=O)CN2CCN(C(=O)c3cccc(OC)c3)CC2=O)cc1` [2-(4-(3-methoxybenzoyl)-2-oxopiperazin-1-yl)-N,N-bis(4-methoxybenzyl)acetamide] the “Average Ratio Compound to THI0019” value [1] was “Group IV (Group IV>5× of THI0019 (with an upper limit of approximately 200 mM))” and the “LAD Raw Fluorescence Units against LFA-1; Ratio of raw counts Compound/THI0349” value [2] was 0.6 fold response.

`O=C1CN(CCOC(=O)N(Cc2cccs2)Cc2cccs2)C(=O)CN1CCOC(=O)N(Cc1cccs1)Cc1cccs1` [(2,5-dioxopiperazine-1,4-diyl)bis(ethane-2,1-diyl) bis(bis(thiophen-2-ylmethyl)carbamate)] was tested, and the “Average Ratio Compound to THI0019” value [1] was “Group II (Group II at least a ratio of >1 up to 2× that of THI0019 ran on the same plate)” and the “LAD Raw Fluorescence Units against LFA-1; Ratio of raw counts Compound/THI0349” value [2] was 2 fold increased response.

`COc1cccc(CN(Cc2cccc(OC)c2)C(=O)CN2CC(=O)N(CC(=O)N(Cc3cccc(OC)c3)Cc3cccc(OC)c3)CC2=O)c1` [2,2′-(2,5-dioxopiperazine-1,4-diyl)bis(N,N-bis(3-methoxybenzyl)acetamide)] was tested, and the “Average Ratio Compound to THI0019” value [1] was “Group I (Group I< or =1)”.

With `CN(C)c1ccc(CN(Cc2ccc(N(C)C)cc2)C(=O)CN2CC(=O)N(CC(=O)N(Cc3ccc(N(C)C)cc3)Cc3ccc(N(C)C)cc3)CC2=O)cc1` [2,2′-(2,5-dioxopiperazine-1,4-diyl)bis(N,N-bis(4-(dimethylamino)benzyl)acetamide)] the “Average Ratio Compound to THI0019” value [1] was “Group I (Group I< or =1)”.

With `COc1ccc(CN(Cc2ccc(OC)cc2)C(=O)CN2CCN(CC(=O)N(Cc3ccc(OC)cc3)Cc3ccc(OC)cc3)CC2)cc1` [2,2′-(piperazine-1,4-diyl)bis(N,N-bis(4-methoxybenzyl)acetamide)] the “Average Ratio Compound to THI0019” value [1] was “Group I (Group I< or =1)”.

In the case of `COc1ccc(CN(Cc2cccc(N(C)C)c2)C(=O)CN2CC(=O)N(CC(=O)N(Cc3ccc(OC)cc3)Cc3cccc(N(C)C)c3)CC2=O)cc1`, the “Average Ratio Compound to THI0019” value [1] is reported as “Group II (Group II at least a ratio of >1 up to 2× that of THI0019 ran on the same plate)”.

With `O=C1CN(CC(=O)N(Cc2cccs2)Cc2cccs2)C(=O)CN1CC(=O)N(Cc1cccs1)Cc1cccs1` [2,2′-(2,5-dioxopiperazine-1,4-diyl)bis(N,N-bis(thiophen-2-ylmethyl)acetamide)] the “Average Ratio Compound to THI0019” value [1] was “Group III (Group III is >2× of THI0019 but less than 5×)”.
